Results from US9499495B2, “Quinazolines and azaquinazolines as dual inhibitors of RAS/RAF/MEK/ERK and PI3K/AKT/PTEN/mTOR pathways” (Asana Biosciences, LLC, priority 2013, dated 2016).

How the values were obtained:
B-RAFV600E = biological target: T1, B-RAFV600E (Homo sapiens, UniProt P15056, V600E); experiment: B-RAFV600E radiometric assay; format: biochemical; conditions: read-out: Kinase assay B-Raf
T1 construct: purchased Millipore, USA 14-557
Procedure, shortened: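 B-RAFV600E was preincubated 45 min at rt with compound in 1% DMSO. MEK-K97M (0.5 μg), 5 μM final cold ATP and [γ-32P]ATP were then added for 2 h at rt. Phosphorylated MEK was captured on P81 paper and scintillation-counted; IC50 came from a sigmoidal dose-response fit.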

PI3Kα = biological target: T2, PI3Kα (Homo sapiens, UniProt P42336); experiment: PI3 Kinase alpha TR-FRET assay; format: biochemical
T2 construct: made in house; host or cells: SF9 cells
Procedure, shortened: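 Purified Sf9-expressed p110/p85α (5 ng) was pre-incubated with compound and PIP2 at rt, then ATP was added (PIP2 and ATP both 40 μM) for a 30 min reaction. PIP3 was detected by TR-FRET displacement of biotin-PIP3, and IC50 was taken from dose-response curves of the 665/615 nm emission ratio.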

A375 cells = experiment: XTT assay for cell viability, A375 cells; format: cell-based; conditions: Homo sapiens, A-375, 72 h
Procedure, shortened: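 RKO and A375 cells seeded at 1000-2000/well overnight, then exposed to compound for 72 h at 37° C., 5% CO2. XTT (1 mg/ml)/PMS (25 μM) added for 2-3 h; absorbance at 450 nm. Growth relative to DMSO control (100%); GI50 from sigmoidal dose-response fit.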

T2 sequence (P42336 whole entry, species assumed): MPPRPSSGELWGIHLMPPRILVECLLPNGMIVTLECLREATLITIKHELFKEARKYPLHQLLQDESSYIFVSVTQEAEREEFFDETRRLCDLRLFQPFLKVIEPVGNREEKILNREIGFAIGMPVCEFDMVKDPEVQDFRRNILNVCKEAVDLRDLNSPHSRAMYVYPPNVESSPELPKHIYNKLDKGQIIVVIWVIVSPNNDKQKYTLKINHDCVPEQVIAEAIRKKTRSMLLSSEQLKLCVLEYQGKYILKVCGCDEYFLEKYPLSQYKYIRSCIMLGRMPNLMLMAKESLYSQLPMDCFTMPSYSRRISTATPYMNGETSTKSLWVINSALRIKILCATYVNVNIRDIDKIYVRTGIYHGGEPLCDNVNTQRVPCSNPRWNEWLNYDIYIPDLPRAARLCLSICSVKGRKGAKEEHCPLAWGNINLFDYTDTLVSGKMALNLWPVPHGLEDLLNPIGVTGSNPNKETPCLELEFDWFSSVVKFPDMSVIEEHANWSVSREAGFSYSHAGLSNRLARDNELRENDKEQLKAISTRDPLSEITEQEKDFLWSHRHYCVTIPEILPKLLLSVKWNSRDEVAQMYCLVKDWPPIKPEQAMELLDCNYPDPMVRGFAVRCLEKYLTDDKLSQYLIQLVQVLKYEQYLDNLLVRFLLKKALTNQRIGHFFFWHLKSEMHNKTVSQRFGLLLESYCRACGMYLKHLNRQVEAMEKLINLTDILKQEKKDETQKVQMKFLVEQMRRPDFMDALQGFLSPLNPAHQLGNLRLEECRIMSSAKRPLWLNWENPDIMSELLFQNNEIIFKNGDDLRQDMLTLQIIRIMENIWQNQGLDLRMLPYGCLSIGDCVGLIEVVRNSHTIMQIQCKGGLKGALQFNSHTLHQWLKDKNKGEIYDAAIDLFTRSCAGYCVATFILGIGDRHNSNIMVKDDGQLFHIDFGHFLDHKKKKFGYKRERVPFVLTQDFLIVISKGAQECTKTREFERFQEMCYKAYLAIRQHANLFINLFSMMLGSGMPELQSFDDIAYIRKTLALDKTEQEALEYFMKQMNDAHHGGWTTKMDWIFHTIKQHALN
T2 sequence (P27986 whole entry partner, species assumed): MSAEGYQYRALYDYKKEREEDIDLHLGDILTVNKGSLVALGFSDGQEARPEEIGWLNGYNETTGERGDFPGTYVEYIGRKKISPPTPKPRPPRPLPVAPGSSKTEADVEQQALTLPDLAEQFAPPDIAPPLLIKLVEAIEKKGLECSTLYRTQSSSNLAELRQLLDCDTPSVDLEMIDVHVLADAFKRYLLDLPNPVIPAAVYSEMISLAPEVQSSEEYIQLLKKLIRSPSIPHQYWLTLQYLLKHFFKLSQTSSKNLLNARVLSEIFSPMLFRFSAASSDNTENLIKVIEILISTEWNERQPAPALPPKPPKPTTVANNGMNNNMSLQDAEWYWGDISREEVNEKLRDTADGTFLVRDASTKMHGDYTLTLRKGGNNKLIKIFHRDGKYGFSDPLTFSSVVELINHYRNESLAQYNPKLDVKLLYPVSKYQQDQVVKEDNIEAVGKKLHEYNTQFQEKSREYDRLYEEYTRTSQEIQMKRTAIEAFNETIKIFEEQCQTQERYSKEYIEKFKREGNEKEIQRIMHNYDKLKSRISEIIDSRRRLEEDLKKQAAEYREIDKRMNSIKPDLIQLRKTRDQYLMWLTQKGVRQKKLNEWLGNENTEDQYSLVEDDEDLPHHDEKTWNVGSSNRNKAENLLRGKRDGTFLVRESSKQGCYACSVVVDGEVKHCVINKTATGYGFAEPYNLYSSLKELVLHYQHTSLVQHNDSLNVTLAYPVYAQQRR
T1 sequence (P15056 416-766 V600E limits assumed): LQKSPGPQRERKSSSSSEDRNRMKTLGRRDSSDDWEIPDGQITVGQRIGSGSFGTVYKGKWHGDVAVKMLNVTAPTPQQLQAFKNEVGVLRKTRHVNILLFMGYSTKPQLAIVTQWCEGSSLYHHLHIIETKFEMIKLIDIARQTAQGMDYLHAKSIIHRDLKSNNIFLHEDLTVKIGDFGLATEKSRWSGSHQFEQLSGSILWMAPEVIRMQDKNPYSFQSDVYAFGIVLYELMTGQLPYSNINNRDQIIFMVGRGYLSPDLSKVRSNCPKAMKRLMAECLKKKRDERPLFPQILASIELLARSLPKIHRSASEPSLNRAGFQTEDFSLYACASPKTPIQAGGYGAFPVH

| Compound | IC50 (B-RAFV600E) [nM] | IC50 (PI3Kα) [nM] | IC50 (A375 cells) [nM] |
| --- | --- | --- | --- |
| Nc1ncc(-c2nc(N3CCOCC3)c3nc(-c4cccc(NS(=O)(=O)c5cc(F)ccc5F)c4F)ccc3n2)cn1 [Example 93, N-(3-(2-(2-aminopyrimidin 5-yl)-4-morpholinopyrido[3,2-d]pyrimidin-6-yl)-2-fluorophenyl)-2,5-difluorobenzenesulfonamide] | 1 to 100 | 1 to 100 | 100 to 1000 |
| Nc1cc(C(F)(F)F)c(-c2nc(N3CCOCC3)c3nc(-c4cccc(NS(=O)(=O)CCCF)c4F)ccc3n2)cn1 [Example 94, N-(3-(2-(6-amino-4-(trifluoromethyl)pyridin-3-yl)-4-morpholinopyrido[3,2-d]pyrimidin-6-yl)-2-fluorophenyl)-3-fluoropropane-1-sulfonamide] | 1 to 100 | 1 to 100 | 100 to 1000 |
| Nc1ccc(-c2nc(N3CCOCC3)c3nc(-c4cccc(NS(=O)(=O)c5c(F)cccc5F)c4F)ccc3n2)cn1 [Example 95, N-(3-(2-(6-aminopyridin-3-yl)-4-morpholinopyrido[3,2-d]pyrimidin-6-yl)-2-fluorophenyl)-2,6-difluorobenzenesulfonamide] | 1 to 100 | 100 to 1000 | 100 to 1000 |
| C[C@@H]1COCCN1c1nc(-c2ccc(N)nc2)nc2ccc(-c3cccc(NS(=O)(=O)CCCF)c3F)nc12 [Example 96, (R)-N-(3-(2-(6-aminopyridin-3-yl)-4-(3-methylmorpholino)pyrido[3,2-d]pyrimidin-6-yl)-2-fluorophenyl)-3-fluoropropane-1-sulfonamide] | 1 to 100 | 100 to 1000 | 1 to 100 |
| C[C@@H]1COCCN1c1nc(-c2cnc(N)nc2)nc2ccc(-c3cccc(NS(=O)(=O)CCCF)c3F)nc12 [Example 97, (R)-N-(3-(2-(2-aminopyrimidin-5-yl)-4-(3-methylmorpholino)pyrido[3,2-d]pyrimidin-6-yl)-2-fluorophenyl)-3-fluoropropane-1-sulfonamide] | 1 to 100 | 1 to 100 | 100 to 1000 |
| O=S(=O)(CCCF)Nc1cccc(-c2ccc3nc(-c4ccc(NCCO)nc4)nc(N4CCOCC4)c3n2)c1F [Example 99, 3-fluoro-N-(2-fluoro-3-(2-(6-((2-hydroxyethyl)amino)pyridin-3-yl)-4-morpholinopyrido[3,2-d]pyrimidin-6-yl)phenyl)propane-1-sulfonamide] | 1 to 100 | 100 to 1000 | 100 to 1000 |
| Cc1cc(N)ncc1-c1nc(N2CCOCC2)c2nc(-c3cccc(NS(=O)(=O)CCCF)c3F)ccc2n1 [Example 101, N-(3-(2-(6-amino-4-methylpyrtdin-3-yl)-4-morpholinopyrldo[3,2-d]pyrimidin-6-yl)-2-fluorophenyl)-3-fluoropropane-1-sulfonamide] | 1 to 100 | 1 to 100 | 100 to 1000 |
| Nc1cc(F)c(-c2nc(N3CCOCC3)c3nc(-c4cccc(NS(=O)(=O)CCCF)c4F)ccc3n2)cn1 [Example 102, N-(3-(2-(6-amino-4-fluoropyridin-3-yl)-4-morpholinopyrido[3,2-d]pyrimidin-6-yl)-2-fluorophenyl)-3-fluoropropane-1-sulfonamide] | 1 to 100 | 1 to 100 | 100 to 1000 |
| Nc1cc(C(F)(F)F)c(-c2nc(N3CCOCC3)c3nc(-c4cccc(NS(=O)(=O)c5c(F)cccc5F)c4F)ccc3n2)cn1 [Example 106, N-(3-(2-(6-amino-4-(trifluoromethyl)pyridin-3-yl)-4-morpholinopyrido[3,2-d]pyrimidin-6-yl)-2-fluorophenyl)-2,6-difluorobenzenesulfonamide] | 1 to 100 | 1 to 100 | 100 to 1000 |
| C[C@H]1COCCN1c1nc(-c2cnc(N)cc2C(F)(F)F)nc2ccc(-c3cccc(NS(=O)(=O)CCCF)c3F)nc12 [Example 108, (S)-N-(3-(2-(6-amino-4-(trifluoromethyl)pyrldin-3-yl)-4-(3-methylmorpholino)pyrido[3,2-d]pyrimidin-6-yl)-2-fluorophenyl)-3-fluoropropane-1-sulfonamide] | 1 to 100 | 1 to 100 | 100 to 1000 |
| O=S(=O)(CCCF)Nc1cccc(-c2ccc3nc(-c4ccc(NCCCO)nc4)nc(N4CCOCC4)c3n2)c1F [Example 111, 3-fluoro-N-(2-fluoro-3-(2-(6-((3-hydroxypropyl)amino)pyridin-3-yl)-4-morpholinopyrido[3,2-d]pyrimidin-6-yl)phenyl)propane-1-sulfonamide] | 1 to 100 | 100 to 1000 | 100 to 1000 |
| CNc1ccc(-c2nc(N3CCOCC3)c3nc(-c4cccc(NS(=O)(=O)CCCF)c4F)ccc3n2)cn1 [Example 113, 3-fluoro-N-(2-fluoro-3-(2-(6-(methylamino)pyridin-3-yl)-4-morpholinopyrido[3,2-d]pyrimidin-6-yl)phenyl)propane-1-sulfonamide] | 1 to 100 | 1 to 100 | 100 to 1000 |
| Cc1cc(-c2cccc(NS(=O)(=O)CCCF)c2F)cc2c(N3CCOCC3)nc(-c3cnc(N)nc3)nc12 [Example 116, N-(3-(2-(2-aminopyrimidin-5-yl)-8-methyl-4-morpholinoquinazolin-6-yl)-2-fluorophenyl)-3-fluoropropane-1-sulfonamide] | 1 to 100 | 100 to 1000 | 1 to 100 |
| C[C@H]1COCCN1c1nc(-c2cnc(N)cc2F)nc2ccc(-c3cccc(NS(=O)(=O)CCCF)c3F)nc12 [Example 129, (S)-N-(3-(2-(6-amino-4-fluoropyridin-3-yl)-4-(3-methylmorpholino)pyrido[3,2-d]pyrimidin-6-yl)-2-fIuorophenyl)-3-fluoropropane-1-sulfonamide] | 1 to 100 | 1 to 100 | 100 to 1000 |
| COc1cc(-c2cccc(NS(=O)(=O)CCCF)c2F)cc2c(N3CCOC[C@H]3C)nc(-c3cnc(N)c(F)c3)nc12 [Example 134, (R)-N-(3-(2-(6-amino-5-fluoropyridin-3-yl)-8-methoxy-4-(3-methylmorpholino)quinazolin-6-yl)-2-fluorophenyl)-3-fluoropropane-1-sulfonamide] | 1 to 100 | 1000 to 10000 | 1 to 100 |
| COc1cc(-c2cccc(NS(=O)(=O)CCCF)c2F)cc2c(N3CCOC[C@H]3C)nc(-c3cnc(N)cc3F)nc12 [Example 135, (R)-N-(3-(2-(6-amino-4-fluoropyridin-3-yl)-8-methoxy-4-(3-methylmorpholino)quinazolin-6-yl)-2-fluorophenyl)-3-fluoropropane-1-sulfonamide] | 1 to 100 | 1000 to 10000 | 1 to 100 |
